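In this assay, cells in 96-well plates receive the compound at five concentrations for 48 hours. Endpoints are linearly interpolated between the surrounding concentrations. The concentration for 50% growth inhibition is given as GI50. TGI is the concentration that stops growth completely.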
Key:
Assay in all cases: NCI-60 cell line screen, 48 h
HT29 colon = tested on: HT29 colon
SW-620 colon = tested on: SW-620 colon
U251 CNS = tested on: U251 CNS
OVCAR-4 ovarian = tested on: OVCAR-4 ovarian
OVCAR-3 ovarian = tested on: OVCAR-3 ovarian
SNB-19 CNS = tested on: SNB-19 CNS
OVCAR-5 ovarian = tested on: OVCAR-5 ovarian
HS 578T breast = tested on: HS 578T breast
MALME-3M melanoma = tested on: MALME-3M melanoma
CCRF-CEM leukemia = tested on: CCRF-CEM leukemia
HCC-2998 colon = tested on: HCC-2998 colon
PC-3 prostate = tested on: PC-3 prostate
SK-MEL-28 melanoma = tested on: SK-MEL-28 melanoma
MDA-MB-231 breast = tested on: MDA-MB-231 breast
RXF 393 renal = tested on: RXF 393 renal
SF-295 CNS = tested on: SF-295 CNS
M14 melanoma = tested on: M14 melanoma
HCT-15 colon = tested on: HCT-15 colon
K-562 leukemia = tested on: K-562 leukemia
SN12C renal = tested on: SN12C renal
SK-MEL-5 melanoma = tested on: SK-MEL-5 melanoma
DU-145 prostate = tested on: DU-145 prostate
IGROV1 ovarian = tested on: IGROV1 ovarian
NCI-H460 lung = tested on: NCI-H460 lung
OVCAR-8 ovarian = tested on: OVCAR-8 ovarian
T-47D breast = tested on: T-47D breast
COLO 205 colon = tested on: COLO 205 colon
CAKI-1 renal = tested on: CAKI-1 renal
786-0 renal = tested on: 786-0 renal
KM12 colon = tested on: KM12 colon
LOX IMVI melanoma = tested on: LOX IMVI melanoma
HOP-62 NSCLC = tested on: HOP-62 NSCLC
SR leukemia = tested on: SR leukemia
A498 renal = tested on: A498 renal
ACHN renal = tested on: ACHN renal
MOLT-4 leukemia = tested on: MOLT-4 leukemia
MCF7 breast = tested on: MCF7 breast
HOP-92 NSCLC = tested on: HOP-92 NSCLC
BT-549 breast = tested on: BT-549 breast
SNB-75 CNS = tested on: SNB-75 CNS
SK-OV-3 ovarian = tested on: SK-OV-3 ovarian
SF-539 CNS = tested on: SF-539 CNS
HCT-116 colon = tested on: HCT-116 colon
A549 NSCLC = tested on: A549 NSCLC
UO-31 renal = tested on: UO-31 renal
NCI-H522 lung = tested on: NCI-H522 lung
RPMI-8226 leukemia = tested on: RPMI-8226 leukemia
UACC-257 melanoma = tested on: UACC-257 melanoma
SF-268 CNS = tested on: SF-268 CNS
HL-60(TB) leukemia = tested on: HL-60(TB) leukemia
NCI-H23 lung = tested on: NCI-H23 lung
NCI-H226 lung = tested on: NCI-H226 lung
UACC-62 melanoma = tested on: UACC-62 melanoma
TK-10 renal = tested on: TK-10 renal
MDA-MB-435 = tested on: MDA-MB-435
NCI/ADR-RES ovarian = tested on: NCI/ADR-RES ovarian
SK-MEL-2 melanoma = tested on: SK-MEL-2 melanoma

Cn1cc(C2=C(Oc3ccccc3)C(=O)NC2=O)c2ccccc21
GI50 (HT29 colon): > 25 µM | TGI (HT29 colon): > 25 µM | GI50 (SW-620 colon): > 25 µM | TGI (SW-620 colon): > 25 µM | GI50 (U251 CNS): > 25 µM | TGI (U251 CNS): > 25 µM | GI50 (OVCAR-4 ovarian): > 25 µM | TGI (OVCAR-4 ovarian): > 25 µM | GI50 (OVCAR-3 ovarian): > 25 µM | TGI (OVCAR-3 ovarian): > 25 µM | GI50 (SNB-19 CNS): > 25 µM | TGI (SNB-19 CNS): > 25 µM | GI50 (OVCAR-5 ovarian): > 25 µM | TGI (OVCAR-5 ovarian): > 25 µM | GI50 (HS 578T breast): > 25 µM | TGI (HS 578T breast): > 25 µM | GI50 (MALME-3M melanoma): > 25 µM | TGI (MALME-3M melanoma): > 25 µM | GI50 (CCRF-CEM leukemia): > 25 µM | TGI (CCRF-CEM leukemia): > 25 µM | GI50 (HCC-2998 colon): > 25 µM | TGI (HCC-2998 colon): > 25 µM | GI50 (PC-3 prostate): > 25 µM | TGI (PC-3 prostate): > 25 µM | GI50 (SK-MEL-28 melanoma): > 25 µM | TGI (SK-MEL-28 melanoma): > 25 µM | GI50 (MDA-MB-231 breast): > 19.3 µM | TGI (MDA-MB-231 breast): > 25 µM | GI50 (RXF 393 renal): > 25 µM | TGI (RXF 393 renal): > 25 µM | GI50 (SF-295 CNS): > 25 µM | TGI (SF-295 CNS): > 25 µM | GI50 (M14 melanoma): > 25 µM | TGI (M14 melanoma): > 25 µM | GI50 (HCT-15 colon): > 25 µM | TGI (HCT-15 colon): > 25 µM | GI50 (K-562 leukemia): > 25 µM | TGI (K-562 leukemia): > 25 µM | GI50 (SN12C renal): > 25 µM | TGI (SN12C renal): > 25 µM | GI50 (SK-MEL-5 melanoma): > 25 µM | TGI (SK-MEL-5 melanoma): > 25 µM | GI50 (DU-145 prostate): > 25 µM | TGI (DU-145 prostate): > 25 µM | GI50 (IGROV1 ovarian): > 25 µM | TGI (IGROV1 ovarian): > 25 µM | GI50 (NCI-H460 lung): > 25 µM | TGI (NCI-H460 lung): > 25 µM | GI50 (OVCAR-8 ovarian): > 25 µM | TGI (OVCAR-8 ovarian): > 25 µM | GI50 (T-47D breast): > 25 µM | TGI (T-47D breast): > 25 µM | GI50 (COLO 205 colon): > 25 µM | TGI (COLO 205 colon): > 25 µM | GI50 (CAKI-1 renal): > 25 µM | TGI (CAKI-1 renal): > 25 µM | GI50 (786-0 renal): > 25 µM | TGI (786-0 renal): > 25 µM | GI50 (KM12 colon): > 25 µM | TGI (KM12 colon): > 25 µM | GI50 (LOX IMVI melanoma): > 25 µM | TGI (LOX IMVI melanoma): > 25 µM | GI50 (HOP-62 NSCLC): > 17.8 µM | TGI (HOP-62 NSCLC): > 25 µM | GI50 (SR leukemia): > 25 µM | TGI (SR leukemia): > 25 µM | GI50 (A498 renal): > 25 µM | TGI (A498 renal): > 25 µM | GI50 (ACHN renal): > 25 µM | TGI (ACHN renal): > 25 µM | GI50 (MOLT-4 leukemia): > 25 µM | TGI (MOLT-4 leukemia): > 25 µM | GI50 (MCF7 breast): > 25 µM | TGI (MCF7 breast): > 25 µM | GI50 (HOP-92 NSCLC): 6.32 µM | TGI (HOP-92 NSCLC): > 25 µM | GI50 (BT-549 breast): > 25 µM | TGI (BT-549 breast): > 25 µM | GI50 (SNB-75 CNS): > 12.4 µM | TGI (SNB-75 CNS): > 25 µM | GI50 (SK-OV-3 ovarian): > 25 µM | TGI (SK-OV-3 ovarian): > 25 µM | GI50 (SF-539 CNS): > 25 µM | TGI (SF-539 CNS): > 25 µM | GI50 (HCT-116 colon): > 25 µM | TGI (HCT-116 colon): > 25 µM | GI50 (A549 NSCLC): > 25 µM | TGI (A549 NSCLC): > 25 µM | GI50 (UO-31 renal): > 25 µM | TGI (UO-31 renal): > 25 µM | GI50 (NCI-H522 lung): > 25 µM | TGI (NCI-H522 lung): > 25 µM | GI50 (RPMI-8226 leukemia): > 25 µM | TGI (RPMI-8226 leukemia): > 25 µM | GI50 (UACC-257 melanoma): > 25 µM | TGI (UACC-257 melanoma): > 25 µM | GI50 (SF-268 CNS): > 25 µM | TGI (SF-268 CNS): > 25 µM | GI50 (HL-60(TB) leukemia): > 25 µM | TGI (HL-60(TB) leukemia): > 25 µM | GI50 (NCI-H23 lung): > 25 µM | TGI (NCI-H23 lung): > 25 µM | GI50 (NCI-H226 lung): > 25 µM | TGI (NCI-H226 lung): > 25 µM | GI50 (UACC-62 melanoma): > 25 µM | TGI (UACC-62 melanoma): > 25 µM | GI50 (TK-10 renal): > 25 µM | TGI (TK-10 renal): > 25 µM | GI50 (MDA-MB-435): > 25 µM | TGI (MDA-MB-435): > 25 µM | GI50 (NCI/ADR-RES ovarian): > 25 µM | TGI (NCI/ADR-RES ovarian): > 25 µM | GI50 (SK-MEL-2 melanoma): > 25 µM | TGI (SK-MEL-2 melanoma): > 25 µM
